According to BindingDB's records for doi:10.1016/j.bmcl.2021.128376 (Bristol Myers Squibb Research and Development, 2021):

Test: Inhibition of c-MYC (unknown origin)

IC50 [nM]	SMILES
6.9	Cc1nnn(C)c1-c1cc2c(cn1)c1ncc(C(C)(C)O)cc1n2[C@H](c1ccccc1)C1CCOCC1 [US9725449, Example 364]
0.7	Cc1nnn(C)c1-c1cnc2c3ccc(C(C)(C)O)cc3n([C@H](c3ccccc3)C3CCOCC3)c2c1 [US10112941, Example 54]
3.4	Cc1nnn(C)c1-c1cc(F)c2c3ncc(C(C)(C)O)cc3n([C@H](c3ccccc3)C3CCOCC3)c2c1 [US10683290, Example 11]
0.2	Cc1nnn(C)c1-c1ccc2c3ncc(C(C)(C)O)cc3n([C@H](c3ccccc3)C3CCOCC3)c2c1 [US10683290, Example 16]
0.8	Cc1nnn(C)c1-c1cc2c(cc1F)c1ncc(C(C)(C)O)cc1n2[C@H](c1ccccc1)C1CCOCC1 [US10683290, Example 19]
0.6	Cc1nnn(C)c1-c1ccc2c3ncc(C(C)(C)O)cc3n([C@H](c3ccccc3)C3CCOCC3)c2c1F [US10683290, Example 20]
42	Cc1nnn(C)c1-c1cc2c(cc1Cl)c1ncc(C(C)(C)O)cc1n2[C@H](c1ccccc1)C1CCOCC1 [US10683290, Example 77]

Further lines, the compound ahead of its results:

SMILES	IC50 [nM]
[2H]C([2H])([2H])c1nnn(C)c1-c1cc2c(cc1F)c1ncc(C(C)(C)O)cc1n2[C@H](c1ncccc1F)C1CCOCC1	1.3
[2H]C([2H])([2H])c1nnn(C)c1-c1cc2c(cc1F)c1ncc(C(C)(C)O)cc1n2[C@H](c1cc(C)on1)C1CCOCC1	2.4
[2H]C([2H])([2H])c1nnn(C)c1-c1cc2c(cc1F)c1ncc(C(C)(C)O)cc1n2[C@@H](CCC)c1ncccc1F	0.7
